Results taken from patent EP0590885B1, “Antibiotic carbapenem compounds” (ZENECA LIMITED, priority 1992, dated 1994).
In brackets after ≈: the same amount, converted by molar mass.

What was measured:
Test in all cases: MIC by agar-dilution technique, Diagnostic Sensitivity Test
Assay type in all cases: cell-based
S. aureus 147N = details: Staphylococcus aureus, inoculum size 10^4 CFU/spot
Text: (§1) The following results were obtained for representative compounds on a standard in vitro test system using Diagnostic Sensitivity Test. The antibacterial activity is described in terms of the minimum inhibitory concentration (MIC) determined by the agar-dilution technique with an inoculum size of 10^4 CFU/spot.

Enterobacter cloacae 108 = details: inoculum size 10^4 CFU/spot
Text: as §1

[1] = test system: Enterobacter cloacae -029; details: inoculum size 10^4 CFU/spot
Text: as §1

E. coli TEM = details: Escherichia coli
Text: as §1

| Compound | MIC (S. aureus 147N) | MIC (Enterobacter cloacae 108) | MIC [1] | MIC (E. coli TEM) |
| --- | --- | --- | --- | --- |
| CO/N=C(\C(=O)N[C@@H]1C(=O)N2C(C(=O)O)=C(CSc3nc(=O)c(=O)[nH]n3C)CS[C@H]12)c1csc(N)n1 [ceftriaxone, reference compound] | 2 µg/mL (≈ 3.61 µM) | 32 µg/mL (≈ 57.7 µM) | 0.06 µg/mL (≈ 0.108 µM) | 0.03 µg/mL (≈ 0.0541 µM) |
| C[C@@H](O)[C@H]1C(=O)N2C(C(=O)O)=C(S[C@@H]3CN[C@H](C(=O)Nc4cc(/C=C/C(=O)O)ccc4O)C3)[C@H](C)[C@H]12 [Example 2, (1R,5S,6S,8R,2'S,4'S)-2-(2-(3-(E-2-Carboxy-1-ethenyl)-6-hydroxyphenylcarbamoyl)pyrrolidin-4-ylthio)-6-(1-hydroxyethyl)-1-methylcarbapenem-3-carboxylic acid] | 0.25 µg/mL (≈ 0.483 µM) | 4 µg/mL (≈ 7.73 µM) | 0.25 µg/mL (≈ 0.483 µM) | 0.06 µg/mL (≈ 0.116 µM) |
| C[C@@H](O)[C@H]1C(=O)N2C(C(=O)O)=C(S[C@@H]3CN[C@H](C(=O)Nc4cccc(OCC(=O)O)c4)C3)[C@H](C)[C@H]12 [Example 3, (1R,5S,6S,8R,2'S,4'S)-2-(2-(3-Carboxymethoxyphenylcarbamoyl)pyrrolidin-4-ylthio)-6-(1-hydroxyethyl)-1-methylcarbapenem-3-carboxylic acid] | 0.25 µg/mL (≈ 0.495 µM) | 1 µg/mL (≈ 1.98 µM) | 0.06 µg/mL (≈ 0.119 µM) | 0.03 µg/mL (≈ 0.0593 µM) |
| C[C@@H](O)[C@H]1C(=O)N2C(C(=O)O)=C(S[C@@H]3CN[C@H](C(=O)Nc4cccc(C(=O)NCC(=O)O)c4)C3)[C@H](C)[C@H]12 [Example 7, (1R,5S,6S,8R,2'S,4'S)-2(2-(3-Carboxymethylaminocarbonylphenylcarbamoyl)-pyrrolidin-4-ylthio)-6-(1-hydroxyethyl)-1-methylcarbapenem-3-carboxylic acid] | 0.25 µg/mL (≈ 0.469 µM) | 1 µg/mL (≈ 1.88 µM) | 0.13 µg/mL (≈ 0.244 µM) | 0.03 µg/mL (≈ 0.0563 µM) |
| C[C@@H](O)[C@H]1C(=O)N2C(C(=O)O)=C(S[C@@H]3CN[C@H](C(=O)Nc4cccc(/C=C/C(=O)O)c4)C3)[C@H](C)[C@H]12 [Example 1, (1R,5S,6S,8R,2'S,4'S)-2-(2-(3-(E-2-Carboxy-1-ethenyl)phenylcarbamoyl)pyrrolidin-4-ylthio)-6-(1-hydroxyethyl)-1-methylcarbapenem-3-carboxylic acid] | 0.13 µg/mL (≈ 0.259 µM) | 2 µg/mL (≈ 3.99 µM) | 0.13 µg/mL (≈ 0.259 µM) | 0.03 µg/mL (≈ 0.0598 µM) |
